Literature values in patent publication US10689462B2, “Therapeutic and imaging compositions and uses thereof” (priority 2013, dated 2020).

Experiments:
[1] = room temperature
[2] = within 24 h
npc1^−/− mice = conditions: subcutaneous injection, 4.0 mg/kg of body weight

hydroxypropyl-β-cyclodextrin [HP-β-CD]
Solubility in water [1]: 650 mg/mL
Fraction cleared from the bloodstream [2]: > 90%
Effect on survival, hepatopathology and neuropathology (npc1^−/− mice): improvement in their survival, hepatopathology, and neuropathology
